In PubChem BioAssay AID1053203 (The Scripps Research Institute Molecular Screening Center, 2014):

Assay: T. brucei bloodstream parasite growth inhibition, late-stage follow-up, counter-screen for T. brucei MetRS inhibitor project, absorbance, round 2, provider-run (AID 1053203)
Conditions: T. brucei Lister 427 bloodstream growth, AlamarBlue, 48 h

| Structure (SMILES) | IC50 (run 1) [nM] | IC50 (run 2) [nM] |
| --- | --- | --- |
| CCN(CC)C(=O)C(=O)c1cn(CC(=O)Nc2cc(C)cc(C(F)(F)F)c2)c2ccccc12 | 1720 | 2090 |
| CCN(CC)C(=O)C(=O)c1cn(CC(=O)Nc2cc(Cl)cc(C(F)(F)F)c2)c2ccccc12 | 2640 |  |
| CCN(CC)C(=O)C(=O)c1cn(CC(=O)Nc2cc(Br)cc(C(F)(F)F)c2)c2ccccc12 | 3360 |  |
| CCN(CC)C(=O)C(=O)c1cn(CC(=O)Nc2cc(Oc3ccccc3)cc(C(F)(F)F)c2)c2ccccc12 | 1150 | 1070 |
| CCN(CC)C(=O)C(=O)c1cn(CC(=O)Nc2cc(C(F)(F)F)cc(C(F)(F)F)c2)c2ccccc12 | 2600 |  |
| CCN(CC)C(=O)C(=O)c1cn(CC(=O)Nc2cccc(C(F)(F)F)c2)c2cc(OC)ccc12 | > 10000 |  |
